Assay results taken from patent US20190292605A1, “Biomarkers of Response to Cyclin D-CDK4/6 Targeted Therapies in Cancer” (The Regents of the University of California, priority 2014, published 2019).
Where two headings read alike, the source gives them in different places.

What was measured:
colon cancer = conditions: patients; cited from earlier work
[1] = system: human melanoma cell lines; assay: response to palbociclib treatment in 48 melanoma cell lines; format: cell-based
From the text: Melanoma, a malignancy originating in pigment-producing melanocytes, is generally resistant to conventional treatments such as radiotherapy or chemotherapy. Molecular targeted therapeutics against BRAF and MEK have shown marked efficacy for patients with metastatic melanoma. However these targeted therapies have a limited duration of response. […] Our main goal in this study was to evaluate the therapeutic potential of palbociclib in a large panel of human melanoma cell lines to identify potential biomarkers of sensitivity and resistance. Material and Methods: We evaluated the response palbociclib treatment in 48 melanoma cell lines. A comprehensive biomarker screen was performed using mutation and gene expression (Agilent) data. The mechanism of action of the drug, phospho-Rb and senescence, was investigated by western blot (WB) analysis. Effects on the cell cycle and apoptosis were study by flow cytometry.

[2] = system: 17 gastric and 27 colon cancer cell lines; assay: dose response in gastric and colon cancer cell line panels; format: cell-based; conditions: Homo sapiens; 14 of the 44 gastric and colon cancer cell lines tested; read-out: anti-proliferative activity (concentration)
Method: Methods: Panels of 17 gastric and 27 colon cancer cell lines were exposed in vitro to palbociclib over various concentrations to generate dose response curves. Analysis of variance (ANOVA) was used to identify differentially expressed genes between sensitive and resistant cell lines. Genes identified by ANOVA and effects of palbociclib on pRB were analyzed via western blot.

IC50 ([1]; 48 melanoma cell lines, read-out: IC50, lower end of range across melanoma cell lines) [nM] | IC50 ([1]; 48 melanoma cell lines, read-out: IC50, upper end of range across melanoma cell lines) [nM] | IC50 ([1]; subset (14/48) of melanoma cell lines, clinically achievable concentrations, read-out: IC50 of cell lines classified as sensitive) [nM] | IC50 [2] [nM] | SMILES | clinical benefit (colon cancer)
– | – | – | – | CCN1CCN(Cc2ccc(Nc3ncc(F)c(-c4cc(F)c5nc(C)n(C(C)C)c5c4)n3)nc2)CC1 [LY2835219] | beneficial in colon cancer
28 | > 1000 | < 150 | < 150 | CC(=O)c1c(C)c2cnc(Nc3ccc(N4CCNCC4)cn3)nc2n(C2CCCC2)c1=O [palbociclib] | –
